Results as given in US11000033B2, “Ketone or oxime compound, and herbicide” (NISSAN CHEMICAL CORPORATION, priority 2014, dated 2021).

Experiments:
Type in all cases: in vivo
Conditions in all cases: 3 weeks after application
Setaria viridis = test: Test Example 5: herbicidal effect by foliage application, plastic box (symbol G)
Summary of the method: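 Effect is rated 3 weeks after a foliar spray of water-diluted emulsion concentrate at a predetermined herbicide amount. Plants had grown 14 days in a 25° C. to 30° C. greenhouse from seed in sterilized diluvial soil.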

wheat = test: Test Example 5: effect on crop by foliage application, plastic box (symbol e)
Summary of the method: (§1)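 Greenhouse culture at 25° C. to 30° C. followed spot-like sowing into sterilized diluvial soil, with seed covered by roughly 1.5 cm of soil.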

beet = test: Test Example 5: effect on crop by foliage application, plastic box (symbol f)
Summary of the method: as §1

rapeseed = test: Test Example 5: effect on crop by foliage application, plastic box (symbol g)
Summary of the method: as §1

| SMILES | G: Setaria viridis, herbicidal effect grade (Setaria viridis; 320 g/ha) | e: wheat, effect on crop grade (wheat; 320 g/ha) | f: beet, effect on crop grade (beet; 320 g/ha) | g: rapeseed, effect on crop grade (rapeseed; 320 g/ha) | G: Setaria viridis, herbicidal effect (criteria 0-5) (Setaria viridis; 320 g/ha) | e: wheat, effect on crop (criteria 0-5) (wheat; 320 g/ha) | f: beet, effect on crop (criteria 0-5) (beet; 320 g/ha) | g: rapeseed, effect on crop (criteria 0-5) (rapeseed; 320 g/ha) | further results |
| --- | --- | --- | --- | --- | --- | --- | --- | --- | --- |
| CCC(CC1CC(O)=C(c2c(C)cc(Br)cc2OC)C1=O)=NOC (mixture of isomers) [13-001] | 5 (Herbicidal ratio of 90% or more (almost completely withered)) | 5 (Herbicidal ratio of 90% or more (almost completely withered)) | 0 (Herbicidal ratio of 5% or lower (almost no effect)) | 4 (Herbicidal ratio of 70% or higher and lower than 90%) | – | – | – | – | – |
| CC(=O)C(C)C1CC(O)=C(c2c(C)cc(C)cc2C)C1=O (stereo not drawn) [2-005] | – | – | – | – | – | – | – | – | G: Setaria viridis, herbicidal effect grade (Setaria viridis; 269 g/ha): 4 (Herbicidal ratio of 70% or higher and lower than 90%); e: wheat, effect on crop grade (wheat; 269 g/ha): 0 (Herbicidal ratio of 5% or lower (almost no effect)); f: beet, effect on crop grade (beet; 269 g/ha): 2 (Herbicidal ratio of 20% or higher and lower than 40%); g: rapeseed, effect on crop grade (rapeseed; 269 g/ha): 4 (Herbicidal ratio of 70% or higher and lower than 90%) |
| CON=C(C)CC1CC(OS(=O)(=O)N(C)C)=C(c2c(C)cc(C)cc2C)C1=O (stereo not drawn) [1-122] | – | – | – | – | 5 (Herbicidal ratio of 90% or more (almost completely withered)) | 4 (Herbicidal ratio of 70% or higher and lower than 90%) | 0 (Herbicidal ratio of 5% or lower (almost no effect)) | 5 (Herbicidal ratio of 90% or more (almost completely withered)) | – |
| CC(CC1CC(O)=C(c2c(C)cc(C)cc2C)C1=O)=NOCc1ccc(Cl)cc1 (stereo not drawn) [1-137] | – | – | – | – | 5 (Herbicidal ratio of 90% or more (almost completely withered)) | 3 (Herbicidal ratio of 40% or higher and lower than 70%) | 0 (Herbicidal ratio of 5% or lower (almost no effect)) | 4 (Herbicidal ratio of 70% or higher and lower than 90%) | – |
| CC#Cc1cc(C)c(C2=C(O)CC(CC(=NOC)C3CC3)C2=O)c(C)c1 (stereo not drawn) [9-008] | 5 (Herbicidal ratio of 90% or more (almost completely withered)) | 5 (Herbicidal ratio of 90% or more (almost completely withered)) | 0 (Herbicidal ratio of 5% or lower (almost no effect)) | 4 (Herbicidal ratio of 70% or higher and lower than 90%) | – | – | – | – | – |
| CON=C(C)CC1CC(OC(=O)c2cnoc2C2CC2)=C(c2c(C)cc(C)cc2C)C1=O (stereo not drawn) [1-103] | – | – | – | – | 5 (Herbicidal ratio of 90% or more (almost completely withered)) | 5 (Herbicidal ratio of 90% or more (almost completely withered)) | 0 (Herbicidal ratio of 5% or lower (almost no effect)) | 4 (Herbicidal ratio of 70% or higher and lower than 90%) | – |
| CON=C(C)CC1CC(OC(=O)c2cc(C)on2)=C(c2c(C)cc(C)cc2C)C1=O (stereo not drawn) [1-100] | – | – | – | – | 5 (Herbicidal ratio of 90% or more (almost completely withered)) | 5 (Herbicidal ratio of 90% or more (almost completely withered)) | 0 (Herbicidal ratio of 5% or lower (almost no effect)) | 5 (Herbicidal ratio of 90% or more (almost completely withered)) | – |
| CC(CC1CC(OC(=O)N2CCOCC2)=C(c2c(C)cc(-c3ccc(Cl)cc3)cc2C)C1=O)=NOCC(F)(F)F (mixture of isomers) [9-025] | 4 (Herbicidal ratio of 70% or higher and lower than 90%) | 0 (Herbicidal ratio of 5% or lower (almost no effect)) | 0 (Herbicidal ratio of 5% or lower (almost no effect)) | 0 (Herbicidal ratio of 5% or lower (almost no effect)) | – | – | – | – | – |
| CC(CC1CC(O)=C(c2c(C)cc(-c3ccc(Cl)cc3)cc2C)C1=O)=NOCC(F)(F)F (stereo not drawn) [9-024] | 5 (Herbicidal ratio of 90% or more (almost completely withered)) | 3 (Herbicidal ratio of 40% or higher and lower than 70%) | 0 (Herbicidal ratio of 5% or lower (almost no effect)) | 4 (Herbicidal ratio of 70% or higher and lower than 90%) | – | – | – | – | – |
| CON=C(C)CC1CC(OC(=O)C(C)(C)C)=C(c2c(C)cc(C)cc2C)C1=O (stereo not drawn) [1-004, 2-mesityl-4-{2-(methoxyimino)propyl}-3-oxocyclopent-1-en-1-yl pivalate] | 5 (Herbicidal ratio of 90% or more (almost completely withered)) | 5 (Herbicidal ratio of 90% or more (almost completely withered)) | 3 (Herbicidal ratio of 40% or higher and lower than 70%) | 4 (Herbicidal ratio of 70% or higher and lower than 90%) | – | – | – | – | – |
| CC(CC1CC(O)=C(c2c(C)cc(C)cc2C)C1=O)=NOCc1ccc(C(F)(F)F)cc1 (stereo not drawn) [1-138] | – | – | – | – | 5 (Herbicidal ratio of 90% or more (almost completely withered)) | 3 (Herbicidal ratio of 40% or higher and lower than 70%) | 0 (Herbicidal ratio of 5% or lower (almost no effect)) | 4 (Herbicidal ratio of 70% or higher and lower than 90%) | – |
| COC(=O)c1ccc(CON=C(C)CC2CC(O)=C(c3c(C)cc(C)cc3C)C2=O)cc1 (stereo not drawn) [1-118] | – | – | – | – | 0 (Herbicidal ratio of 5% or lower (almost no effect)) | 0 (Herbicidal ratio of 5% or lower (almost no effect)) | 0 (Herbicidal ratio of 5% or lower (almost no effect)) | 4 (Herbicidal ratio of 70% or higher and lower than 90%) | – |
| COCCON=C(CC1CC(O)=C(c2c(C)cc(-n3cc(Cl)cn3)cc2C)C1=O)C(C)C (stereo not drawn) [9-022] | 5 (Herbicidal ratio of 90% or more (almost completely withered)) | 0 (Herbicidal ratio of 5% or lower (almost no effect)) | 0 (Herbicidal ratio of 5% or lower (almost no effect)) | 0 (Herbicidal ratio of 5% or lower (almost no effect)) | – | – | – | – | – |
| CC(CC1CC(O)=C(c2c(C)cc(C)cc2C)C1=O)=NOCC(C)Cl (stereo not drawn) [1-121] | – | – | – | – | 5 (Herbicidal ratio of 90% or more (almost completely withered)) | 3 (Herbicidal ratio of 40% or higher and lower than 70%) | 0 (Herbicidal ratio of 5% or lower (almost no effect)) | 5 (Herbicidal ratio of 90% or more (almost completely withered)) | – |
| CC(CC1CC(O)=C(c2c(C)cc(C)cc2C)C1=O)=NOCC(N)=O (stereo not drawn) [1-124] | – | – | – | – | 2 (Herbicidal ratio of 20% or higher and lower than 40%) | 3 (Herbicidal ratio of 40% or higher and lower than 70%) | 0 (Herbicidal ratio of 5% or lower (almost no effect)) | 4 (Herbicidal ratio of 70% or higher and lower than 90%) | – |
| CC(CC1CC(O)=C(c2c(C)cc(C)cc2C)C1=O)=NOCC[S+](C)[O-] (stereo not drawn) [1-125] | – | – | – | – | 5 (Herbicidal ratio of 90% or more (almost completely withered)) | 5 (Herbicidal ratio of 90% or more (almost completely withered)) | 0 (Herbicidal ratio of 5% or lower (almost no effect)) | 3 (Herbicidal ratio of 40% or higher and lower than 70%) | – |
| CC(CC1CC(OC(=O)COc2ccccc2)=C(c2c(C)cc(-n3cc(Cl)cn3)cc2C)C1=O)=NOCC(F)(F)F (stereo not drawn) [9-012] | 5 (Herbicidal ratio of 90% or more (almost completely withered)) | 2 (Herbicidal ratio of 20% or higher and lower than 40%) | 0 (Herbicidal ratio of 5% or lower (almost no effect)) | 3 (Herbicidal ratio of 40% or higher and lower than 70%) | – | – | – | – | – |
| COc1cc(Br)cc(C)c1C1=C(O)CC(CC(=O)C2CC2)C1=O (racemic) [14-001] | 5 (Herbicidal ratio of 90% or more (almost completely withered)) | 4 (Herbicidal ratio of 70% or higher and lower than 90%) | 0 (Herbicidal ratio of 5% or lower (almost no effect)) | 4 (Herbicidal ratio of 70% or higher and lower than 90%) | – | – | – | – | – |
| CC(CC1CC(O)=C(c2c(C)cc(C)cc2C)C1=O)=NOCc1ccccc1[N+](=O)[O-] (stereo not drawn) [1-119] | – | – | – | – | 5 (Herbicidal ratio of 90% or more (almost completely withered)) | 4 (Herbicidal ratio of 70% or higher and lower than 90%) | 0 (Herbicidal ratio of 5% or lower (almost no effect)) | 5 (Herbicidal ratio of 90% or more (almost completely withered)) | – |
| CC(CC1CC(O)=C(c2c(C)cc(C)cc2C)C1=O)=NOCc1cccc(C(F)(F)F)c1 (stereo not drawn) [1-117] | – | – | – | – | 5 (Herbicidal ratio of 90% or more (almost completely withered)) | 5 (Herbicidal ratio of 90% or more (almost completely withered)) | 0 (Herbicidal ratio of 5% or lower (almost no effect)) | 5 (Herbicidal ratio of 90% or more (almost completely withered)) | – |
| CON=C(CC1CC(OC(=O)C(C)(C)C)=C(c2c(C)cc(C)cc2OC)C1=O)C1CC1 (mixture of isomers) [13-006] | 5 (Herbicidal ratio of 90% or more (almost completely withered)) | 5 (Herbicidal ratio of 90% or more (almost completely withered)) | 3 (Herbicidal ratio of 40% or higher and lower than 70%) | 4 (Herbicidal ratio of 70% or higher and lower than 90%) | – | – | – | – | – |
